Measurements published in patent publication US9629828B2, “Methods of treating traveler's diarrhea and hepatic encephalopathy” (priority 2008, dated 2017).
Entries after “also recorded” stand apart in the source; their conditions may differ. Read-outs that look alike come from different tables or passages of the source.

What was measured:
[1] = tested on: patients with hepatic encephalopathy; assay: First study: adverse events, rifaximin 550 mg BID; assay type: in vivo, human
Source text: Ninety-one percent of patients in the trial were taking lactulose concomitantly. […] (These include adverse events that may be attributable to the underlying disease.)
The following includes adverse events occurring at a greater incidence than placebo, regardless of causal relationship to drug exposure.
A total of 79.9% of subjects (239 of 299) experienced TEAEs during the course of the study.

CYP3A4 [2] = target: T1, CYP3A4 (Homo sapiens, UniProt P08684); assay: In vitro cytochrome P450 inhibition; assay type: in vitro ADME; details: 2 to 200 ng/mL
T1 construct: from tissue; host or cells: human liver fractions

dogs = details: dog, in vivo
Description: However, plasma drug levels were not measured in these studies. […] The maximum plasma AUC0-8 hr values from the 6 month rat and 9 month dog toxicity studies (range: 42-127 ng·h/mL) was lower than the maximum plasma AUC0-8 hr values in cirrhotic patients (range: 19-306 ng·h/mL).

patients with HE [3] = assay type: in vivo, human
Source text: Total number of hospitalizations, duration of hospitalizations, HE endpoints, and cost of therapy were compared between the 2 treatment regimens.

patients with HE [4] = assay: Rifaximin 1200 mg/day: effect on blood ammonia and HE grade (50 patients); assay type: in vivo, human; details: for effect on HE grade: 1200 mg/day; for effect on blood ammonia: 1200 mg/day for 5-10 days
Source text: Correlation between ammonia reduction over time and HE was examined.
While discrete blood ammonia concentrations may be variable, serial measurements in individual patients have been associated with HE severity.

[5] = tested on: Gram-positive and Gram-negative bacteria, such as Escherichia coli; assay: In vitro antibacterial activity / susceptibility (NCCLS agar dilution M7-A6); assay type: cell-based
Description: In vitro susceptibility testing was performed according to the National Committee for Clinical Laboratory Standards (NCCLS) agar dilution method M7-A612.
Methods for dilution antimicrobial susceptibility tests for bacteria that grow aerobically. National Committee for Clinical Laboratory Standards, Sixth Edition, Wayne Pa. Approved Standard NCCLS Document M7-A6 Jan.

patients with HE [6] = details: rifaximin 1200 mg/day, neomycin 3 g/day; cited from earlier work
CYP3A4 [7] = assay: Clinical drug interaction: rifaximin 550 mg TID on oral midazolam

T1 sequence (P08684 whole entry): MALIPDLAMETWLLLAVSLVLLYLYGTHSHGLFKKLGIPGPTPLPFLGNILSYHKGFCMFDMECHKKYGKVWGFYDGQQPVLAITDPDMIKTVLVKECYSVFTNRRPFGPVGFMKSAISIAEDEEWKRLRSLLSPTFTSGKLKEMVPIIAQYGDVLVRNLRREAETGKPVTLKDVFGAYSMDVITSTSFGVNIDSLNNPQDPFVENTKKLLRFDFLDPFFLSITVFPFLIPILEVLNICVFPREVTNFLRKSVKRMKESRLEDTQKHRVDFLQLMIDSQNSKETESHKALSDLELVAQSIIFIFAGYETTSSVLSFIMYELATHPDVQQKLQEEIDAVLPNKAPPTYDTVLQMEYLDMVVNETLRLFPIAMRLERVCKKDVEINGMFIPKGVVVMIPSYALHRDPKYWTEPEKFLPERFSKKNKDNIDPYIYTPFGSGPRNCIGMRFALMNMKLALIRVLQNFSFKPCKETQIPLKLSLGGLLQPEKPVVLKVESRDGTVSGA

Compound: CO[C@H]1/C=C/O[C@@]2(C)Oc3c(C)c(O)c4c(O)c(c5c(nc6cc(C)ccn65)c4c3C2=O)NC(=O)/C(C)=C\C=C\[C@H](C)[C@H](O)[C@@H](C)[C@@H](O)[C@@H](C)[C@H](OC(C)=O)[C@@H]1C [rifaximin, (2S,16Z,18E,20S,21S,22R,23R,24R,25 S,26S,27S,28E)-5,6,21,23,25-pentahydroxy-27-methoxy-2,4,11,16,20,22,24,26-octamethyl-2,7-(epoxypentadeca-[1,11,13]trienimino)benzofuro[4,5-e]pyrido[1,2-á]-benzimidazole-1,15(2H)-dione,25-acetate]
- Abdominal distension ([1]; 550 mg BID, N = 140): 11 (7.9%) Number (%) of Patients
- Abdominal pain ([1]; 550 mg BID, N = 140): 12 (8.6%) Number (%) of Patients
- Abdominal pain upper ([1]; 550 mg BID, N = 140): 9 (6.4%) Number (%) of Patients
- Anemia ([1]; 550 mg BID, N = 140): 11 (7.9%) Number (%) of Patients
- Arthralgia ([1]; 550 mg BID, N = 140): 9 (6.4%) Number (%) of Patients
- Ascites ([1]; 550 mg BID, N = 140): 16 (11.4%) Number (%) of Patients
- Back pain ([1]; 550 mg BID, N = 140): 9 (6.4%) Number (%) of Patients
- Constipation ([1]; 550 mg BID, N = 140): 9 (6.4%) Number (%) of Patients
- Cough ([1]; 550 mg BID, N = 140): 10 (7.1%) Number (%) of Patients
- Depression ([1]; 550 mg BID, N = 140): 10 (7.1%) Number (%) of Patients
- Dizziness ([1]; 550 mg BID, N = 140): 18 (12.9%) Number (%) of Patients
- Dyspnea ([1]; 550 mg BID, N = 140): 9 (6.4%) Number (%) of Patients
- Edema peripheral ([1]; 550 mg BID, N = 140): 21 (15.0%) Number (%) of Patients
- Fatigue ([1]; 550 mg BID, N = 140): 17 (12.1%) Number (%) of Patients
- Insomnia ([1]; 550 mg BID, N = 140): 10 (7.1%) Number (%) of Patients
- Muscle spasms ([1]; 550 mg BID, N = 140): 13 (9.3%) Number (%) of Patients
- Nasopharyngitis ([1]; 550 mg BID, N = 140): 10 (7.1%) Number (%) of Patients
- Nausea ([1]; 550 mg BID, N = 140): 20 (14.3%) Number (%) of Patients
- Pruritus ([1]; 550 mg BID, N = 140): 13 (9.3%) Number (%) of Patients
- Pyrexia ([1]; 550 mg BID, N = 140): 9 (6.4%) Number (%) of Patients
- Rash ([1]; 550 mg BID, N = 140): 7 (5.0%) Number (%) of Patients
- TEAE ascites ([1]; first study): 11.4%
- TEAE diarrhea ([1]; first study): 10.7%
- TEAE dizziness ([1]; first study): 12.9%
- TEAE fatigue ([1]; first study): 12.1%
- TEAE headache ([1]; first study): 10%
- TEAE nausea ([1]; first study): 14.3%
- TEAE peripheral edema ([1]; first study): 15%
- early study discontinuation due to adverse reactions ([1]; in vivo): 6%
- inhibition of CYP3A4 (CYP3A4 [2]): did not inhibit
- toxic effects (dogs): negligible toxic effects
- patients with Conn scores of 3 or 4 (patients with HE [3]; end of treatment period): 6%
- days hospitalized (patients with HE [3]; human, in vivo): 2.5 days
- hospitalizations due to HE, cost, HE endpoints vs lactulose (patients with HE [3]; human, in vivo): dramatically reduced
- patients with asterixis at end of treatment period (patients with HE [3]; human, in vivo): 63%
- hospitalizations (patients with HE [3]; rifaximin 400 mg 3 times/day, lactulose 30 mL twice daily): 0.5
- effect on HE grade (patients with HE [4]): significant improvement in overall HE grade
- effect on blood ammonia (patients with HE [4]): statistically significant blood ammonia reduction; also recorded: lowers ammonia levels
- effect on blood ammonia (patients with HE [4]; listed as Rifaximin): decreased blood ammonia
- effect on HE grade (patients with HE [4]; listed as Rifaximin): improvement in HE grade
- in vitro antibacterial activity [5]: active
- in vitro antibacterial activity ([5]; listed as Rifaximin): in vitro antimicrobial activity; also recorded: broad spectrum of in vitro antibacterial activity
- efficacy in patients with HE (patients with HE [6]): comparable efficacy
- CYP3A4 induction in vivo / midazolam exposure (CYP3A4 [7]): only slightly reduced exposure; also recorded: weak inducer of CYP3A4
